Data taken from publication PMC6120934, “Inhibiting Multiple Deubiquitinases to Reduce Androgen Receptor Expression in Prostate Cancer Cells” (Scientific Reports, 2018).

Columns and labels:
Type in all cases: biochemical
USP21 = molecular target: T1, USP21 (Homo sapiens, UniProt Q9UK80); assay: MALDI-TOF DUB activity assay with diubiquitin; […] inhibition at […]
T1 construct: recombinant (recUSP21)
T1 sequence (Q9UK80 1-565): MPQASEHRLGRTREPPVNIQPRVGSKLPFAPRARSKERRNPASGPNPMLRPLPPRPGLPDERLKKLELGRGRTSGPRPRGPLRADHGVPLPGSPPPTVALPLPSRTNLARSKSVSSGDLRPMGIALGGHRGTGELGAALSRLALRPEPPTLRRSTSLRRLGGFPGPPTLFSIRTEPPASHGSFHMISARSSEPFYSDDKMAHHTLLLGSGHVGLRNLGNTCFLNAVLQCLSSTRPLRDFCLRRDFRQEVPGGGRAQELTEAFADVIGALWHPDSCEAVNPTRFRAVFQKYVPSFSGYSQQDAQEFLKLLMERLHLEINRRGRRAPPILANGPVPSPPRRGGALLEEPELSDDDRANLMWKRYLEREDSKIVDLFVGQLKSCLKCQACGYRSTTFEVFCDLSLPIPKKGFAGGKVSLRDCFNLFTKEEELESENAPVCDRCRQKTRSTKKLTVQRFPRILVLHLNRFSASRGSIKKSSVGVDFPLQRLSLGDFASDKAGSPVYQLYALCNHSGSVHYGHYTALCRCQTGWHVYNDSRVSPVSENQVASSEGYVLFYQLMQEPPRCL

USP16 = molecular target: T2, USP16 (Homo sapiens, UniProt Q9Y5T5); assay: MALDI-TOF DUB activity assay with diubiquitin, single dose […]
T2 construct: recombinant

USP27X = molecular target: T3, USP27X (Homo sapiens, UniProt A6NNY8); assay: as above
T3 construct: recombinant (recUSP27)
T3 sequence (A6NNY8 1-438): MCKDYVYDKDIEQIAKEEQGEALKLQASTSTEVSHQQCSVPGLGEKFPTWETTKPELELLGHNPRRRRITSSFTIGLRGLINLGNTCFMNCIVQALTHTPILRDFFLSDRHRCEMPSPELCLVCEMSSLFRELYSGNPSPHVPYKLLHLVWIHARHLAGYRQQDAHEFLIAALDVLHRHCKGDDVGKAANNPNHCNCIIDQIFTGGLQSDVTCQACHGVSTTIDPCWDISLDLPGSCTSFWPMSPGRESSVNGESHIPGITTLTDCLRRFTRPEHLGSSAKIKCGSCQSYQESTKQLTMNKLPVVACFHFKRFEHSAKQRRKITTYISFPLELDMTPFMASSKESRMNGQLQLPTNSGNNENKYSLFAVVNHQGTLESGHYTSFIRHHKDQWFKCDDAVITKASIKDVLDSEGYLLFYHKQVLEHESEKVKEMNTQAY

USP36 = molecular target: T4, USP36 (Homo sapiens, UniProt Q9P275); assay: as above
T4 construct: recombinant
T4 sequence (Q9P275 1-1123): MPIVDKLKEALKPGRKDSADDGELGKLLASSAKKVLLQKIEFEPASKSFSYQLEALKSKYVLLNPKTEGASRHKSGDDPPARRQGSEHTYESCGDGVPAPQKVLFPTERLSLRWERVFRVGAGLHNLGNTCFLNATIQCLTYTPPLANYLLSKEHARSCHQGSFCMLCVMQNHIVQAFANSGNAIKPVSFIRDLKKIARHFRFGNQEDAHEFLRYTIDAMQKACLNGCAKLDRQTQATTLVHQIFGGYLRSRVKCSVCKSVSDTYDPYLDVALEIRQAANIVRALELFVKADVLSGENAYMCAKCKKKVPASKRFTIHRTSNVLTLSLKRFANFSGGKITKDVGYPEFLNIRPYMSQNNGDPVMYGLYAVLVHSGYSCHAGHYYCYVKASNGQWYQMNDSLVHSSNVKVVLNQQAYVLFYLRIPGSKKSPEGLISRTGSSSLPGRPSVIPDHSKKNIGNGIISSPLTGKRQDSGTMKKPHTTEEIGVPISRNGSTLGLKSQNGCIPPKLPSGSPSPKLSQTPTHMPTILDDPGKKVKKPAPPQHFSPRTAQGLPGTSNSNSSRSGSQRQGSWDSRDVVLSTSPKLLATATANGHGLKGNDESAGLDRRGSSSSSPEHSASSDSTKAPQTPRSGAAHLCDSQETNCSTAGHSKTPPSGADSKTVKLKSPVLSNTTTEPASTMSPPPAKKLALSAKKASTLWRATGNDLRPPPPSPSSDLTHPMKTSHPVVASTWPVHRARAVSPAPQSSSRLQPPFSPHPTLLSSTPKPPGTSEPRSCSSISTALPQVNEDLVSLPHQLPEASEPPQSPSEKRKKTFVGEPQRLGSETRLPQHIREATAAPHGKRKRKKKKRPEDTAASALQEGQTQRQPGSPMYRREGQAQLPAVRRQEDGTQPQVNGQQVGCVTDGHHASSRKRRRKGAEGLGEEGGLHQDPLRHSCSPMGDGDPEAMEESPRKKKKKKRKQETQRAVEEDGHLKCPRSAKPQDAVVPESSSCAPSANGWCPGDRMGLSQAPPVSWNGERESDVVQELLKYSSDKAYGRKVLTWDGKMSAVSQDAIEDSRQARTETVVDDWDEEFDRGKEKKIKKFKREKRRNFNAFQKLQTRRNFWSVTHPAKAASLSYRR

T2 sequence (Q9Y5T5 whole entry): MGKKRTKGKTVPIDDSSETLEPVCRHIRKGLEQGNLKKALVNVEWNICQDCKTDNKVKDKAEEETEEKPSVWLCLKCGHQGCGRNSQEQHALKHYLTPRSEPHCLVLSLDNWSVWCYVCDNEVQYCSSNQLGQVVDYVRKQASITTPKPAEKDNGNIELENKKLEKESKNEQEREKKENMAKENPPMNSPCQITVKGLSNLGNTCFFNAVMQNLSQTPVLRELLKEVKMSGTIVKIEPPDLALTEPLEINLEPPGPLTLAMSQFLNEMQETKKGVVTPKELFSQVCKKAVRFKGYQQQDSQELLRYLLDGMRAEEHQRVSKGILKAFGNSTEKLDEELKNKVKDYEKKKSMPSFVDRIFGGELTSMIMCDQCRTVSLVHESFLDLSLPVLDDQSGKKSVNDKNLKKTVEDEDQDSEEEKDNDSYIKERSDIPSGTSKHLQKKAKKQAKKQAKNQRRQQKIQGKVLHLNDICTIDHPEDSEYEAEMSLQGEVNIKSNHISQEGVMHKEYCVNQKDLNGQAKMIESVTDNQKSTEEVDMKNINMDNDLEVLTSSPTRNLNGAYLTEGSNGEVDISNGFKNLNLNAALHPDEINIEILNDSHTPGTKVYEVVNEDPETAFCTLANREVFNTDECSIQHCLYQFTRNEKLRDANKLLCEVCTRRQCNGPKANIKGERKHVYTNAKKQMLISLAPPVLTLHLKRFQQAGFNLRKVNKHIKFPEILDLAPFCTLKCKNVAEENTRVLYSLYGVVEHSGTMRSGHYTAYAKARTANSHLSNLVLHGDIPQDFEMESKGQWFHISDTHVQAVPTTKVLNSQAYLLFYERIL

## C=C(C)[C@@H]1CC[C@]2(C(=O)O)CC[C@]3(C)[C@H](CC[C@@H]4[C@@]5(C)CC[C@H](O)C(C)(C)[C@@H]5CC[C@]43C)[C@@H]12 [BA, betulinic acid]
USP21
  IC50: 6.1 µM
USP16
  inhibition at 10 µM: 40%
USP27X
  inhibition at 10 µM: 60%
USP36
  inhibition at 10 µM: 40%
